Laboratory results: patent US20100247444A1, “COMPOUND, […], NUCLEAR […] RESONANCE […] METHOD, NUCLEAR […] RESONANCE IMAGING METHOD, MASS SP[…] AND MASS SP[…] METHOD” (KYOTO UNIVERSITY, priority 2007, published 2010)

Details: Meth-A cancer bearing BALB/c mouse, 100 μl of 2 mg/ml in PBS via tail vein, organs collected after 1 hour
Description: (i) Preparation of a cancer bearing mouse Meth-A cells cultured in abdominal cavity of a BALB/c mouse were harvested by administrating 50 ml saline to the mouse. The cells were collected by centrifugation and resuspended in PBS (50 ml). The cells were counted and prepared at 2.0×10^7/ml. 100 μl of the solution containing the cells was subcutaneously injected to a left foot of another BALE/c mouse. […] After 1 hour, the mouse was dissected and the necessary organs (blood (200 μl), liver, kidney, cancer) were collected into microtubes. 1× Lysis buffer (500 μl) was added to each of the tubes and the organs were mashed by using beads. The microtubes were centrifuged (14,000 rpm, 30 min) for the debris to be precipitated and the supernatants were collected and subjected to multiple resonance measurement utilizing magnetic coherence transfer between three elements of ^1H—^13C—^15N.

[13CH3][15N+]([13CH3])([13CH3])CCO [^13C3—^15N-choline chloride]
signals derived from methyl groups of cholines (triple resonance NMR, 3.0 ppm) in cancer (cancer tissue lysate supernatant): detected
signals derived from methyl groups of cholines (triple resonance NMR, 3.0 ppm) in kidney (kidney lysate supernatant): detected
